According to patent US12150925B2, “Buthionine sulfoximine and a metallodrug for the treatment of cancer, HIV or a rheumatic disease” (Istituto Superiore di Sanità, priority 2017, dated 2024):

How the values were obtained:
activated CD4^+ T-cells = test: Viability of activated primary CD4+ T-cells (MTT assay, FIG. 1); assay type: cell-based
Description: FIG. 1 is a graph showing the viability of activated primary CD4^+ T-cells treated with different concentrations of auranofin and buthionine sulfoximine (BSO), measured with the MTT assay. The cells were pre-incubated with the drugs for 24 hours and then activated with phytohemagglutinin (PHA) and assayed for viability 72 hours post activation (A) or the cells were activated with αCD3-αCD28 beads and then treated for 48 h with different combinations of auranofin and BSO (B). In (A), the effects of chloroquine are shown as a matter of comparison with a drug adopted in the clinic to limit immune hyperactivation. All concentrations are expressed in μM. In-vitro activity on activated CD4^+ T-cells and leukemia/lymphoma Methods. Resting CD4^+ T-cells, cultured T-cell leukemic Jurkat cells and Sup-T1 cells were left untreated or incubated for 24-72 hours with various concentrations of auranofin and/or buthionine sulfoximine (BSO), or chloroquine (only CD4^+ T-cells) or cisplatin (only Jurkat and Supt-T1 cells) CD4^+ T-cells were then activated by adding phytohemagglutinin (2 μg/mL). Alternatively, CD4^+ T-cells were first activated with anti-CD3/anti-CD28 beads and, after 72 hours, were left untreated or were incubated with auranofin and/or buthionine sulfoximine (BSO), or chloroquine. Cell viability was determined 24-72 hours post-activation with an MTT assay (CellTiter 96@ Non-Radioactive Cell Proliferation Assay) or MTS assay (CellTiter 960 AQueous One Solution Cell Proliferation Assay System; Promega). For the assay, 300×10^5 cells were re-suspended in 100 μL of medium and transferred to a 96-well plate. Cells were then incubated with 20 μL of a substrate solution (One Solution Reagent) for 3-4 hours in a CO2 (5%) incubator at 37° C. For the MTT assay, 100 μL of a Solubilization/Stop Solution were used to stop the reaction. Medium-only containing wells were included to serve as a blank control. Absorbance levels were recorded at 490 nm (MTS) or 570 nm (MTT) and, after subtraction of the blank, absorbance values were expressed as percentage of controls. Results. The results from the new dosage combinations were compared to the untreated cells as well as the cells treated with single drugs or “classical” dosages, in a multiple comparison analysis. Thus, the statistical significances shown are also significant compared to the untreated cells.

HIV = test: Theoretical clinical example, HIV patient, with computational simulation of the viral reservoir; parameters: species or system human; settings: auranofin 6 mg bid six months plus low-dose BSO (three one-week cycles, 0.08 g orally every 6 hours) with ART; baseline 22 copies/10^6 CD4^+ T-cells
Text: A simulation of the viral load (RNA copies/ml) and viral reservoir (L cells) dynamics in a human model is provided. The trend of productively infected cells (T*) is also shown. The simulation is based on the five differential equations model in Rong and Perelson (2009). The peaks in the viral load correspond to the periods of activation of latently infected CD4+ T-cells. For starting data see Rong and Perelson (2009). Different proliferation rates (p) are shown (day^−1), corresponding to different drug treatments, or absence of any treatment. The bottom three panels depict a scenario without the drugs, with p=1.4 day^−1. The effects of BSO in combination with auranofin at plasma molar ratios (BSO/auranofin) of 1:0.25 (top three panels), 1:0.5 (second line of panels from top), 1:1 (third line of panels from top) are simulated. The plasma concentration of auranofin is […]. The activation function adopted to simulate lymphocyte encounter with antigens is illustrated in Rong and Perelson (2009).
The following is a theoretical example for a typical situation wherein the BSO is used at a reduced concentration, with a clinically-acceptable dosage of auranofin to treat a patient with an HIV diagnosis.
Patient received an HIV diagnosis in 2008. […]
The patient is subjected to quantification of viral DNA, the result of which is 22 copies/10^6 CD4^+ T-cells. […]

SMILES: CCCCS(=N)(=O)CCC(N)C(=O)O (centres unmarked) [BSO, buthionine sulfoximine]
- effect on viability compared with clinically achievable concentrations of Chloroquine (activated CD4^+ T-cells; BSO 2 μM with auranofin): superior
- limitation of cell viability compared with classically-described BSO concentration (250 μM) (activated CD4^+ T-cells; BSO 2 μM with auranofin): similar
- effect with auranofin in limiting the viability of activated CD4^+ T-cells (activated CD4^+ T-cells; BSO as low as 2 μM in combination with auranofin, pre-incubated (FIG. 1A) or treated concomitantly to activation (FIG. 1B)): synergistic effect
- effects of BSO on viability at submicromolar concentrations (activated CD4^+ T-cells; with auranofin, cells activated with αCD3-αCD28 beads, then treated 48 h (FIG. 1B)): still present
- viral reservoir after treatment (HIV): < 10 copies of viral DNA/million cells
